In PubChem BioAssay (NCI):
Several values for one entry are separate records, joined by “and”; a condition that tells them apart may be missing. Equal values may be shown once.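 Test compounds were applied to cells in 96-well plates for 48 hours at 5 doses. GI50: concentration for 50% inhibition of growth. TGI denotes the concentration required for complete inhibition of growth.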

These compounds were tested on OVCAR-8 ovarian (assay: NCI anticancer screen, dose series, 48 h).

| SMILES | TGI [µM] | GI50 |
| --- | --- | --- |
| COC(=O)C(=O)C(C(C)=O)C(=O)NCc1ccc(OC)c(OC)c1 (stereo not given) | > 100 |  |
| COc1ccc(-c2ccc3c(N4CCOC[C@@H]4C)nc(N4CCOC[C@@H]4C)nc3n2)cc1CO | 3.39 | 7.59 nM and 35.1 nM |
| Nc1c(-c2ccccc2-c2c(N)[n+]([O-])c3ccccc3[n+]2[O-])[n+]([O-])c2ccccc2[n+]1[O-] | 81.5 |  |
| CCOC(=O)NC(=O)c1cn(C(CC)COC(=O)NCCCCCCNC(=O)OCC(CC)n2cc(C(=O)NC(=O)OCC)c(=O)[nH]c2=O)c(=O)[nH]c1=O (stereo not given) | > 100 |  |
| COc1ccc(-c2nc(-c3cc(OC)cc(OC)c3)[nH]c2-c2ccc(OC)cc2)cc1 | > 100 | 9770 nM |
| COC(=O)c1cc2c(o1)-c1nccc3c1c(nc1ccccc13)C2=O | 6.38 | 2100 nM |
| O=C(CC(=O)C1CCOC1=O)C(=O)Nc1cccc(Cl)c1 (stereo not given) | > 100 |  |
| CCN1c2ccccc2-c2c3c1cc(C)cc3c1ccccc1[n+]2CC | 1.86 |  |
| Cc1cccc(C2=C/C(=C(\SS/C(C(=O)c3ccc(OCC(=O)O)c(Cl)c3Cl)=C3\C=C(c4cccc(C)c4)SS3)C(=O)c3ccc(OCC(=O)O)c(Cl)c3Cl)SS2)c1 | > 73.6 |  |
| CC(=O)N1CCN(c2ccc(OCC3COC(Cn4ccnc4)(c4ccc(Cl)cc4Cl)O3)cc2)CC1 (stereo not given) | > 100 |  |
| O=C(Cc1nc2c3c(ccc2[nH]c1=O)C(=O)c1ccccc1C3=O)C(=O)Nc1ccccc1[N+](=O)[O-] | 39.6 |  |
| Nc1nc(-c2ccc(Cl)c([N+](=O)[O-])c2)cs1 | > 100 |  |
| COc1cc(/C=C2\[C@H]3c4c(c(OC)c(C)c(OC)c4OC)CC(C(=O)N2Cc2ccccc2)N3C)c(OC)c(C)c1OC | > 100 |  |
| CC1(C)CN=C(NN=C(/C=C/c2ccc(C(F)(F)F)cc2)/C=C/c2ccc(C(F)(F)F)cc2)NC1 | 3.2 | 1670 nM |
| COc1cc(/C=C\c2cc(OC)c(OC)c(OC)c2)cc(N/C=C\C(=O)c2c[nH]c3ccccc23)c1OC | 13.3 | 3330 nM |
| O=C(N/C(=C\c1ccc([N+](=O)[O-])cc1)c1nc2ccccc2[nH]1)c1ccccc1 | > 100 |  |
| COC(=O)/C([Se]c1c(C)cc(C)cc1C)=C(/[Se]c1c(C)cc(C)cc1C)C(=O)OC | > 100 |  |
| NC(=O)C(=O)CC(=O)c1ccccc1NC1=CC(=O)C(=O)c2ccccc21 | > 100 |  |
| CC1CC(O)C(=O)C(O[C@@H]2C[C@@H]3CC[C@@H]4[C@H](CC[C@]5(C)C(C6=CC(=O)OC6)CC[C@]45O)[C@@]3(C=O)C[C@H]2O)O1 (stereo not given in full) | 0.163 |  |
| Cc1cc2c(c(C(N)=O)c1C)-c1ccccc1C2=O | > 100 |  |
| CCCC(=O)C1=C(O)C(Cc2c(O)c(C)c(O)c(C(=O)CCC)c2O)=C(O)C(C)(C)C1=O | > 50 |  |
| COC(=O)/C(=N/O)C(C(=O)C=C(C)C)C(=O)C(=O)Nc1nc2ccc([N+](=O)[O-])cc2s1 (stereo not given) | > 100 |  |
| Cc1ccccc1C1=[N+]([O-])c2ccc(Cl)cc2C1=O | 19.3 |  |
| c1coc(-c2c3ccc(=[N+]4CCCCC4)cc-3oc3cc(N4CCCCC4)ccc23)c1 | 1.1 | 44.9 nM |
| Cc1[nH]c2ccccc2c1C1Cc2ccccc2N1C(=O)C#Cc1ccc([N+](=O)[O-])cc1 (stereo not given) | > 100 |  |
| CCOC(=O)NC(=O)c1cn(C2CCCCC2)c(=O)[nH]c1=O | > 100 |  |
| Cn1c(=O)nc2n(-c3cc(C(F)(F)F)cc(C(F)(F)F)c3)c3ccccc3nc-2c1=O | > 100 |  |

These compounds were tested on HL-60(TB) leukemia (assay: NCI anticancer screen, dose series, 48 h).

| SMILES | GI50 [nM] | TGI |
| --- | --- | --- |
| O=C(O)c1cccc(COc2ccc([N+](=O)[O-])cc2Cl)c1 | 58500 | > 100 µM |
| Nc1ccccc1C(=O)/C=C/c1c(O)ccc2ccccc12 |  | > 100 µM |
| CCC1CN2CCc3cc(OC)c(OC)cc3C2CC1CC1c2cc(OC)c(OC)cc2CCN1C(=O)C1CCCN1 (stereo not given) |  | 43.9 µM |
| CC(C(=O)c1ccc(Cl)cc1)/C(=N/NC(=O)NN)C(=O)Nc1cccc(C(F)(F)F)c1 (stereo not given) |  | > 100 µM |
| COc1cc2c(/C=N\N=C(N)N)c[nH]c2cc1C | 15900 | 29.4 µM |
| CCOP(=O)(OCC)C(C(=O)OC)C(=O)C(=O)Nc1ccc(Cl)cc1Cl (stereo not given) |  | > 100 µM |
| CC(C)=C1CCC(CN(C)C)C1=O (stereo not given) |  | 15.6 µM |
| COc1cccc(/C=N/[N-]C(=O)c2ccncc2)c1[O-].COc1cccc(/C=N/[N-]C(=O)c2ccncc2)c1[O-].[O]=[U](=[O])([OH2+])[OH2+] | 2430 | > 100 µM |
| CC(C)(C)c1ccc2c(c1)S(=O)(=O)Nc1ccc(Cl)cc1NS(=O)(=O)c1cc(C(C)(C)C)ccc1OCCOCCOCCO2 |  | > 100 µM |
| N#CC(=Nc1ccccc1N(C(=O)c1ccccc1)C(=O)c1ccccc1)c1ccccc1 |  | > 41.1 µM |
| COc1c(C)n(CCO)ccc1=O |  | > 100 µM |
| COC(=O)C(=O)C(C(C)=O)C(=O)NCc1ccc(OC)c(OC)c1 (stereo not given) |  | > 100 µM |
| COc1ccc(-c2ccc3c(N4CCOC[C@@H]4C)nc(N4CCOC[C@@H]4C)nc3n2)cc1CO |  | > 3.76 µM and 20.7 µM |
| Nc1c(-c2ccccc2-c2c(N)[n+]([O-])c3ccccc3[n+]2[O-])[n+]([O-])c2ccccc2[n+]1[O-] |  | > 31.3 µM |
| CCOC(=O)NC(=O)c1cn(C(CC)COC(=O)NCCCCCCNC(=O)OCC(CC)n2cc(C(=O)NC(=O)OCC)c(=O)[nH]c2=O)c(=O)[nH]c1=O (stereo not given) |  | > 100 µM |
| COc1ccc(-c2nc(-c3cc(OC)cc(OC)c3)[nH]c2-c2ccc(OC)cc2)cc1 | 3740 | > 100 µM |
| COC(=O)c1cc2c(o1)-c1nccc3c1c(nc1ccccc13)C2=O | 2000 | 4.76 µM |
| O=C(CC(=O)C1CCOC1=O)C(=O)Nc1cccc(Cl)c1 (stereo not given) |  | > 100 µM |

| SMILES | GI50 [nM] | TGI |
| --- | --- | --- |
| Cc1cccc(C2=C/C(=C(\SS/C(C(=O)c3ccc(OCC(=O)O)c(Cl)c3Cl)=C3\C=C(c4cccc(C)c4)SS3)C(=O)c3ccc(OCC(=O)O)c(Cl)c3Cl)SS2)c1 |  | 4.71 µM |
| CC(=O)N1CCN(c2ccc(OCC3COC(Cn4ccnc4)(c4ccc(Cl)cc4Cl)O3)cc2)CC1 (stereo not given) |  | > 100 µM |
| O=C(Cc1nc2c3c(ccc2[nH]c1=O)C(=O)c1ccccc1C3=O)C(=O)Nc1ccccc1[N+](=O)[O-] |  | 43.7 µM |
| CC1=C(C#N)C(=O)CC(c2ccc(Cl)cc2)N(C)N1 (stereo not given) |  | > 100 µM |
| Nc1nc(-c2ccc(Cl)c([N+](=O)[O-])c2)cs1 |  | > 100 µM |
| COc1cc(/C=C2\[C@H]3c4c(c(OC)c(C)c(OC)c4OC)CC(C(=O)N2Cc2ccccc2)N3C)c(OC)c(C)c1OC |  | 36 µM |
| CC1(C)CN=C(NN=C(/C=C/c2ccc(C(F)(F)F)cc2)/C=C/c2ccc(C(F)(F)F)cc2)NC1 | 2030 | 4.35 µM |
| O=C(N/C(=C\c1ccc([N+](=O)[O-])cc1)c1nc2ccccc2[nH]1)c1ccccc1 |  | > 100 µM |
| COC(=O)/C([Se]c1c(C)cc(C)cc1C)=C(/[Se]c1c(C)cc(C)cc1C)C(=O)OC |  | > 100 µM |
| NC(=O)C(=O)CC(=O)c1ccccc1NC1=CC(=O)C(=O)c2ccccc21 |  | > 76.6 µM |
| CC1CC(O)C(=O)C(O[C@@H]2C[C@@H]3CC[C@@H]4[C@H](CC[C@]5(C)C(C6=CC(=O)OC6)CC[C@]45O)[C@@]3(C=O)C[C@H]2O)O1 (stereo not given in full) |  | 0.155 µM |
| Cc1cc2c(c(C(N)=O)c1C)-c1ccccc1C2=O |  | > 100 µM |
| COC(=O)/C(=N/O)C(C(=O)C=C(C)C)C(=O)C(=O)Nc1nc2ccc([N+](=O)[O-])cc2s1 (stereo not given) |  | > 100 µM |
| Cc1ccccc1C1=[N+]([O-])c2ccc(Cl)cc2C1=O |  | 6.22 µM |
| c1coc(-c2c3ccc(=[N+]4CCCCC4)cc-3oc3cc(N4CCCCC4)ccc23)c1 | 92.1 | 0.468 µM |
| Cc1[nH]c2ccccc2c1C1Cc2ccccc2N1C(=O)C#Cc1ccc([N+](=O)[O-])cc1 (stereo not given) |  | > 100 µM |
| CCOC(=O)NC(=O)c1cn(C2CCCCC2)c(=O)[nH]c1=O |  | > 100 µM |
| Cn1c(=O)nc2n(-c3cc(C(F)(F)F)cc(C(F)(F)F)c3)c3ccccc3nc-2c1=O |  | > 100 µM |

The compounds below were run on A549 NSCLC (assay: NCI anticancer screen, dose series, 48 h).

| SMILES | GI50 [µM] | TGI [µM] |
| --- | --- | --- |
| O=C(O)c1cccc(COc2ccc([N+](=O)[O-])cc2Cl)c1 | > 100 | > 100 |
| Nc1ccccc1C(=O)/C=C/c1c(O)ccc2ccccc12 |  | > 100 |
| CCC(C)(O)c1cnc(CC(C)C)c(=O)n1O (stereo not given) |  | > 100 |
| CCC1CN2CCc3cc(OC)c(OC)cc3C2CC1CC1c2cc(OC)c(OC)cc2CCN1C(=O)C1CCCN1 (stereo not given) |  | 78.1 |
| CC(C(=O)c1ccc(Cl)cc1)/C(=N/NC(=O)NN)C(=O)Nc1cccc(C(F)(F)F)c1 (stereo not given) |  | > 100 |
| COc1cc2c(/C=N\N=C(N)N)c[nH]c2cc1C | > 100 | > 100 |
| CCOP(=O)(OCC)C(C(=O)OC)C(=O)C(=O)Nc1ccc(Cl)cc1Cl (stereo not given) |  | > 100 |
| Cn1cc(-c2csc(-c3cn(CCCCN4CCCCC4)c4ccccc34)n2)c2cccnc21 | 1.79 | 3.37 |
| CC(C)=C1CCC(CN(C)C)C1=O (stereo not given) |  | > 100 |
| COc1cccc(/C=N/[N-]C(=O)c2ccncc2)c1[O-].COc1cccc(/C=N/[N-]C(=O)c2ccncc2)c1[O-].[O]=[U](=[O])([OH2+])[OH2+] | 27.9 | > 100 |
| CC(C)(C)c1ccc2c(c1)S(=O)(=O)Nc1ccc(Cl)cc1NS(=O)(=O)c1cc(C(C)(C)C)ccc1OCCOCCOCCO2 |  | > 100 |
| O=C1c2ccccc2-c2c1c1ccccc1c(=O)n2CCN1CCNCC1 | 0.576 | 3.6 |
| N#CC(=Nc1ccccc1N(C(=O)c1ccccc1)C(=O)c1ccccc1)c1ccccc1 |  | > 48.8 |
| COc1c(C)n(CCO)ccc1=O |  | > 100 |
